Experimental data reported in PMC10447463, “Data-mining unveils structure–property–activity correlation of viral infectivity enhancing self-assembling peptides” (Nature Communications, 2023).

How the values were obtained:
[1] = test system: HIV-1 infection of TZM-bl cells; assay: HIV-1 infectivity enhancement assay, β-galactosidase luminescence; format: cell-based; conditions: for Log10 Inf. rel. to EF-C: log10 of HIV-1 infection of TZM-bl cells relative to EF-C, Fig S15 source data, asymmetric std dev errors
[2] = Zeta-potential measurement; format: physicochemical; conditions: zeta potential of peptide; Fig S15 source data
Experimental: 4 µL of 1 mg/mL peptide fibrils solution is added to a 20 µL, 50 µM ThT–solution in PBS. The mixture is incubated for 15 min at RT to allow binding of ThT dye with β–sheet rich structures. For reference PBS (4 µL) was added instead of peptide fibril solution. The samples were placed in black UV Star® 384 microliter well–plates (Greiner bio–one). Fluorescence spectra were recorded on an Infinite® M1000 PRO microplate reader (Tecan) at λem = 488 nm upon excitation at λex = 440 nm with 10 nm bandwidths and multiple reads per well (3×3). Measurements were repeated in triplicates and averaged with standard deviation. […] Zeta-Potential. For the determination of the surface charge of aggregated peptides zeta-potential measurements were conducted with a Zetasizer Nano ZS, Malvern Instruments. Unless stated otherwise the peptides were dissolved from DMSO (10 mg/mL) in PBS (pH 7.4) to concentration of 1 mg/mL and incubated for 1d at RT. Just before the measurement the 60 µL of the peptides were further diluted in 600 µL KCl (aq, 1 mM) in a 1 mL disposable folded capillary cells (DTS–1060, Zetasizer Nano series, Malvern). The zeta potential of the peptides was derived from the electrophoretic mobility based on the Smoluchowski formula. All measurements were averaged over two individually performed experiments and conducted in triplicates for each sample. Aggregate analysis. […] Furthermore, fluorescence microscopy was conducted by staining 1 µL preformed fibrils (1 mg/mL) with 9 µL ThT (50 µM). Brightfield microscopy was performed simultaneously to evaluate aggregation also for non ThT-active fibrils. The measurements were performed on a Leica DMi8 microscope with 10x air objective and equipped with a Leica MC170 HD camera with a filter setting λem = 527/30 nm upon excitation at λex = 480/40 nm) and processed with the Leica LASX software. To quantify size and number of microscopic aggregation of particles > 10 µm^2 at least 3 independently measured images were analyzed via the 3D object counter analysis tool of ImageJ, v 1.53f51. Sum–frequency generation. The SFG experiments were carried out with a femtosecond Ti: Sapphire amplified laser system (Spitfire Ace, Spectra–Physics, 800 nm, 40 fs, 1 kHz) with 5 W output power. We used 2 W to pump an optical parametric amplifier (TOPAS, light conversion) with a non–collinear difference frequency generation stage to generate broadband IR pulses. Another 1 W of the laser output passed through an etalon to generate narrowband visible pulses (10 cm^-1). The incident angles of the visible and IR beams were 36° and 41° with respect to the surface normal, respectively. The visible (13 µJ) and IR (5 µJ) pulses were overlapped spatially and temporally at the sample position. Subsequently, the generated SFG pulse was guided into a spectrograph (Acton SP 300i, Princeton Instruments), and detected with an EMCCD (Newton, Andor Technology). To avoid IR absorption of water vapor, we purged N2 for the measurement. All spectra were collected in the ssp (denoting s-, s- and p-polarized SFG, visible and IR, respectively) polarization combination. The spectra were normalized to the non–resonant signal taken from z–cut quartz after subtracting a background spectrum. […]

[3] = format: physicochemical; design: key to Fibril / Fibril Formation / TEM 2cat / Fibril: 1 = fibrils present; 0 non-fibrillar structures; conditions: TEM, 1 mg/mL, uranyl acetate stain, qualitative
Experimental: For ATR FT–IR spectroscopy measurements, 200 µL of the respective 1 mg/mL PNF solution was lyophilized and the resulting powder used for measurement. All spectra were recorded on a Bruker Tensor 27 spectrometer with a diamond crystal as ATR element (PIKE MiracleTM, spectral resolution 2 cm^-1). Every sample was measured with 64 scans. Data were analyzed with OriginLab software and calculation of β–sheet content was conducted according to a previous report. TEM. For TEM measurements 5 µL of PNF fibrils (1 mg/mL) were placed on copper grids coated with carbon and formvar layer (300 mesh, Plano GmbH). After 10 min incubation time, the grids were staining with 4% uranyl acetate solution for 2.5 min and washed with water. Measurements were performed on a Jeol 1400 electron microscope with 120 kV acceleration voltage. CR Assay. For the determination of the amount of peptide monomer converting into nanostructures the amine reactive dye fluorescamine was used analogous to a previous reported protocol. Briefly, 100 µL of the preformed PNF solution was centrifuged in a Vivaspin 500 tube (3 kDa MWCO) to separate fibers from free peptide monomer (16200 x g, 4 °C, 45 min). The filtrate and 100 μL of the non-filtered PNF sample were lyophilized and dissolved in 30 μL DMSO. 10 μL of the filtrate and non-filtered DMSO samples were submitted in a black UV Star® 384 microliter well–plates (Greiner bio–one) and 3 μL of the fluorescamine solution (10 mg/mL, DMSO) was added to measure the fluorescence enhancement. After 20 min of incubation at RT, fluorescence was recorded on an Infinite® M1000 PRO microplate reader (Tecan) at λem = 470 nm upon excitation at λex = 365 nm with 10 nm bandwidths and multiple reads per well (3×3). Measurements were repeated in triplicates and averaged with standard deviation. All values were calculated as n-fold fluorescence enhancement (DMSO only as a reference was set to 1). The conversion rate CR was defined according to the equation Eq. (3).3 CR=100−100×fluorescenceintensityfiltrate/fluorescenceintensityoriginal[%]
(§1) 1. Remarks on experimental parameters and bioinformatic descriptors
1.1 Experimental parameters
Transmission electron microscopy (TEM) measurements. TEM measurements were used to control if peptides assemble. The assemblies were categorized in non -fibrillar structures (no assembly, […]
grid but only amorphous aggregates. In contrast, peptides defined as fibrillar may also include amorphous structures. Amongst nonfibrillar assemblies also amorphous aggregates are summarized.
Amorphous aggregates are defined as structures with high β-sheet content which lack long-range order, that is crystallinity or fibril formation. It is generally assumed that these structures might be

[4] = format: physicochemical; conditions: ThT-active if fluorescence at least twice the control
Experimental: 4 µL of 1 mg/mL peptide fibrils solution is added to a 20 µL, 50 µM ThT–solution in PBS. The mixture is incubated for 15 min at RT to allow binding of ThT dye with β–sheet rich structures. For reference PBS (4 µL) was added instead of peptide fibril solution. The samples were placed in black UV Star® 384 microliter well–plates (Greiner bio–one). Fluorescence spectra were recorded on an Infinite® M1000 PRO microplate reader (Tecan) at λem = 488 nm upon excitation at λex = 440 nm with 10 nm bandwidths and multiple reads per well (3×3). Measurements were repeated in triplicates and averaged with standard deviation. […] Zeta-Potential. For the determination of the surface charge of aggregated peptides zeta-potential measurements were conducted with a Zetasizer Nano ZS, Malvern Instruments. Unless stated otherwise the peptides were dissolved from DMSO (10 mg/mL) in PBS (pH 7.4) to concentration of 1 mg/mL and incubated for 1d at RT. Just before the measurement the 60 µL of the peptides were further diluted in 600 µL KCl (aq, 1 mM) in a 1 mL disposable folded capillary cells (DTS–1060, Zetasizer Nano series, Malvern). The zeta potential of the peptides was derived from the electrophoretic mobility based on the Smoluchowski formula. All measurements were averaged over two individually performed experiments and conducted in triplicates for each sample. Aggregate analysis. […] Furthermore, fluorescence microscopy was conducted by staining 1 µL preformed fibrils (1 mg/mL) with 9 µL ThT (50 µM). Brightfield microscopy was performed simultaneously to evaluate aggregation also for non ThT-active fibrils. The measurements were performed on a Leica DMi8 microscope with 10x air objective and equipped with a Leica MC170 HD camera with a filter setting λem = 527/30 nm upon excitation at λex = 480/40 nm) and processed with the Leica LASX software. To quantify size and number of microscopic aggregation of particles > 10 µm^2 at least 3 independently measured images were analyzed via the 3D object counter analysis tool of ImageJ, v 1.53f51. Sum–frequency generation. The SFG experiments were carried out with a femtosecond Ti: Sapphire amplified laser system (Spitfire Ace, Spectra–Physics, 800 nm, 40 fs, 1 kHz) with 5 W output power. We used 2 W to pump an optical parametric amplifier (TOPAS, light conversion) with a non–collinear difference frequency generation stage to generate broadband IR pulses. Another 1 W of the laser output passed through an etalon to generate narrowband visible pulses (10 cm^-1). The incident angles of the visible and IR beams were 36° and 41° with respect to the surface normal, respectively. The visible (13 µJ) and IR (5 µJ) pulses were overlapped spatially and temporally at the sample position. Subsequently, the generated SFG pulse was guided into a spectrograph (Acton SP 300i, Princeton Instruments), and detected with an EMCCD (Newton, Andor Technology). To avoid IR absorption of water vapor, we purged N2 for the measurement. All spectra were collected in the ssp (denoting s-, s- and p-polarized SFG, visible and IR, respectively) polarization combination. The spectra were normalized to the non–resonant signal taken from z–cut quartz after subtracting a background spectrum.
as §1

[5] = infectivity class (low / medium / high) of each library peptide, main list in c1-c6, same classes repeated in sub-lists of sequences containing the hydrophobicity/charge patterns P+,H0,P+,H0,P0,H0,P0, P+,H0,P0,H0,P0,H0,P0, P+,H0,P0,H0
[6] = infectivity class (low / medium / high) of the peptide in the sequence-pattern analysis, Fig. S22-A4, class limits not given

| Substance | infectivity [1, 5] | Log10 Inf. rel. to EF-C [1] | Zeta-pot. / mV [2] [mV] | infectivity [1, 6] | Fibril / Fibril Formation [3] | ThT Cat. / ThT-Fluorescence (categorical) [4] |
| --- | --- | --- | --- | --- | --- | --- |
| CETMYDKILKNLSRSR [CR16] | low | -1.716 | 0.41 |  |  |  |
| CKFC [CN33] | low | -1.959 | -19.89 |  |  |  |
| CKFQC [CN31] | low | -1.643 | -17.38 |  |  |  |
| CKIKQIIRGD [psis22] |  | -1.311 | 13.2 | low |  |  |
| EFEFQF [KB11] | low | -2.485 | -24.5 |  |  |  |
| EIEIEIEI [JR12] | low | -1.748 | -8.92 |  |  |  |
| EIKIQINM [TM73] | low | -1.001 | -22.33 | low |  |  |
| FDPFDPFDP [CN24] | low | -1.6317 | -10.9 |  |  |  |
| FKFDKFKFDK [CN26] | low | -1.334 | -12.7 |  |  |  |
| HGDKCHGDKC [CN2] | low | -1.991 | -11.63 |  |  |  |
| HGEHGE [CN6] | low | -2.193 | -12.6 |  |  |  |
| HGEHGEHGE [CN7] | low | -1.72 | -24.2 |  |  |  |
| HHHHEIEIEIEI [JR9] | low | -1.534 | -6.91 |  |  |  |
| HRRHFRHKITKKK [CN29] | low | -1.868 | -9.223 |  |  |  |
| IKVAVKIKIQINM [TM74] | medium | -0.3046 | 14.5 |  |  |  |
| ILKNLSRSRKIKIQIC [TM116] | medium | -0.4741 | 18 |  |  |  |
| KFKFEFEF [MGe01] |  | -1.547 | -2.55 | low |  |  |
| KIEIQINM [NM6] |  | -1.458 | -0.35 | low |  |  |
| KIRGKFEKED [CN30] | low | -1.2355 | -12.7 |  |  |  |
| KKFQKKFQ [CN21] | low | -1.545 | -9.19 |  |  |  |
| KKWWNF |  |  |  |  | 0 | 0 (ThT-inactive (N-Fold <2)) |
| KNDKND [CN5] | low | -1.978 | -15 |  |  |  |
| KNERIKNERI [CN3] | low | -1.888 | -16 |  |  |  |
| KVKGVGK [CN27] | low | -1.587 | -12.8 |  |  |  |
| KVWWNF |  |  |  |  | 0 | 0 (ThT-inactive (N-Fold <2)) |
| KYKGAIIGNIK [CN19] | low | -2.508 | -9.14 |  |  |  |
| MDQMDQMDQMDQMDQ [CN23] | low | -2.37 | -14.98 |  |  |  |
| MKFM [CN32] | low | -1.756 | -16 |  |  |  |
| RVWWNF |  |  |  |  | 0 | 0 (ThT-inactive (N-Fold <2)) |
